Assay results published in PubChem BioAssay (NCI).
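All cell lines were grown in 96-well plates and treated with compound for 48 hours. At the GI50, growth is halved. Definition used: TGI = concentration required for complete inhibition of growth.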

Legend:
Test in all cases: growth of human tumour cells (NCI), 48 h
SW-620 colon = test system: SW-620 colon
UACC-62 melanoma = test system: UACC-62 melanoma
OVCAR-5 ovarian = test system: OVCAR-5 ovarian
MOLT-4 leukemia = test system: MOLT-4 leukemia
NCI-H460 lung = test system: NCI-H460 lung
NCI-H226 lung = test system: NCI-H226 lung
MALME-3M melanoma = test system: MALME-3M melanoma
LOX IMVI melanoma = test system: LOX IMVI melanoma
CCRF-CEM leukemia = test system: CCRF-CEM leukemia
T-47D breast = test system: T-47D breast

| SMILES | TGI (SW-620 colon) | TGI (UACC-62 melanoma) | TGI (OVCAR-5 ovarian) | TGI (MOLT-4 leukemia) | TGI (NCI-H460 lung) | TGI (NCI-H226 lung) | TGI (MALME-3M melanoma) | TGI (LOX IMVI melanoma) | TGI (CCRF-CEM leukemia) | TGI (T-47D breast) | GI50 (T-47D breast) | GI50 (SW-620 colon) | GI50 (UACC-62 melanoma) | GI50 (OVCAR-5 ovarian) | GI50 (NCI-H226 lung) | GI50 (MALME-3M melanoma) | GI50 (LOX IMVI melanoma) | GI50 (CCRF-CEM leukemia) | GI50 (MOLT-4 leukemia) |
| --- | --- | --- | --- | --- | --- | --- | --- | --- | --- | --- | --- | --- | --- | --- | --- | --- | --- | --- | --- |
| CCn1c(-c2ccc(C)cc2)cs/c1=N\C(P(=O)(O)O)P(=O)(O)O | > 100 µM | > 100 µM | > 100 µM | > 100 µM | > 100 µM | > 100 µM | > 100 µM | > 100 µM | > 100 µM | – | – | – | – | – | – | – | – | – | – |
| O=S(=O)(O)c1ccc2c(N=Nc3ccccc3Cl)c(O)ccc2c1 | > 100 µM | > 100 µM | > 100 µM | > 100 µM | – | – | > 100 µM | > 100 µM | > 100 µM | > 100 µM | – | – | – | – | – | – | – | – | – |
| CSc1ccc(/C=C2\N=C(c3ccccc3)N(c3nc4c(Cl)cc(Cl)cc4s3)C2=O)cc1 | > 100 µM | 73.1 µM | > 100 µM | 49.5 µM | > 100 µM | – | – | 82.1 µM | 43.3 µM | 98.4 µM | – | – | – | – | – | – | – | – | – |
| CC1C(c2ccc3c(c2)OCO3)c2cc3c(cc2OC1N1CCCCC1)OCO3 (configuration not stated) | > 100 µM | > 100 µM | > 100 µM | > 100 µM | > 100 µM | – | – | > 100 µM | > 100 µM | > 100 µM | – | – | – | – | – | – | – | – | – |
| COc1ccc(Cl)cc1NC(=O)c1c(NC(=O)C(F)(F)C(F)(F)F)sc2c1CCCCC2 | > 100 µM | 3.86 µM | > 100 µM | – | – | 6.05 µM | 5.63 µM | > 100 µM | > 100 µM | 5.49 µM | 1.26 µM | 1.93 µM | 0.397 µM | 2.61 µM | 1.91 µM | 1.58 µM | 2.62 µM | 0.769 µM | – |
| CN(C)CCNC(=O)c1ccc(NCCCN(C)CCCNc2ccc(C(=O)NCCN(C)C)c3[nH]c4ccc([N+](=O)[O-])cc4c(=O)c23)c2c(=O)c3cc([N+](=O)[O-])ccc3[nH]c12 | 0.557 µM | 0.622 µM | 1.71 µM | 0.0623 µM | 0.169 µM | – | 1.37 µM | 0.206 µM | 0.145 µM | 2.55 µM | – | – | – | – | – | – | – | – | – |
| Nc1nc(N)c2nc(-c3ccco3)cnc2n1 | – | > 100 µM | > 100 µM | > 100 µM | > 100 µM | > 100 µM | > 100 µM | > 100 µM | > 100 µM | – | – | – | – | – | – | – | – | – | – |
| N#CC(N=Nc1ccccc1)c1nc2ccccc2o1 (configuration not stated) | – | > 100 µM | > 100 µM | > 100 µM | > 100 µM | > 100 µM | > 100 µM | – | > 100 µM | 39.9 µM | – | – | – | – | – | – | – | – | – |
| COc1ccc(C2SCC(=O)N2NC(=O)C(C)Oc2ccccc2Cl)cc1 (configuration not stated) | > 100 µM | > 100 µM | > 100 µM | 79.5 µM | > 100 µM | > 100 µM | – | 62 µM | 79.6 µM | > 100 µM | – | – | – | – | – | – | – | – | – |
| COc1cc2cc(C(=O)N3CC(CCl)c4c3cc(N(C)C)c3ccccc43)[nH]c2c(OC)c1OC (configuration not stated) | > 100 µM | 0.0167 µM | 0.039 µM | 0.0608 µM | – | – | 0.0976 µM | 1.86 µM | – | – | – | – | – | – | – | – | – | – | – |
| Cc1cc(O)c(/C=N/c2nc(-c3cccc([N+](=O)[O-])c3)cs2)c(=O)o1 | > 100 µM | > 100 µM | > 100 µM | – | > 100 µM | > 100 µM | – | > 100 µM | – | > 100 µM | – | – | – | – | – | – | – | – | – |
| Cc1ccc(/C=N/NC2=NCCN2)s1 | > 100 µM | > 100 µM | > 100 µM | > 100 µM | – | > 100 µM | > 100 µM | > 100 µM | – | > 100 µM | – | – | – | – | – | – | – | – | – |
| O=C(O)c1cc(O)c2c(c1)Cc1cccc(O)c1C2=O | > 100 µM | 36.8 µM | > 100 µM | 56.5 µM | 65.6 µM | 59.5 µM | 38.1 µM | – | > 100 µM | > 100 µM | – | – | – | – | – | – | – | – | – |
| Cc1ccc(O)c(-c2csc(NCN3CCN(CNc4nc(-c5cc(C)ccc5O)cs4)CC3)n2)c1 | > 100 µM | > 100 µM | > 100 µM | > 100 µM | > 100 µM | > 100 µM | > 100 µM | > 100 µM | > 100 µM | – | – | – | – | – | – | – | – | – | – |
| O=C(CN1CCOCC1)CC(O)(C(F)(F)F)C(F)(F)F | > 100 µM | > 100 µM | > 100 µM | > 100 µM | – | > 100 µM | > 100 µM | > 100 µM | > 100 µM | > 100 µM | – | – | – | – | – | – | – | – | – |
| CCOC(=O)/C=C(\N=P(c1ccccc1)(c1ccccc1)c1ccccc1)C(F)(F)C(F)(F)C(F)(F)C(F)(F)C(F)(F)F | > 100 µM | > 100 µM | > 100 µM | > 100 µM | > 100 µM | – | > 100 µM | > 100 µM | > 100 µM | > 100 µM | – | – | – | – | – | – | – | – | – |
| O[C@H]1[C@H](O)[C@H](O)CN2CCC[C@@H](O)[C@H]12 | > 100 µM | > 100 µM | > 100 µM | > 100 µM | – | > 100 µM | – | > 100 µM | > 100 µM | > 100 µM | – | – | – | – | – | – | – | – | – |
| CCc1n[nH]c(=O)n1NC(=O)c1ccccc1C(=O)O | > 100 µM | > 100 µM | > 100 µM | > 100 µM | – | – | – | > 100 µM | > 100 µM | – | – | – | – | – | – | – | – | – | – |
| CCOC(=O)c1c(C)[nH]c(/C=C2\N=C(c3ccc[nH]3)C=C2OC)c1C | 1.33 µM | 0.0904 µM | 1.51 µM | 3.09 µM | – | – | – | 0.0168 µM | – | – | – | < 0.01 µM | 0.0309 µM | 0.0404 µM | – | – | < 0.01 µM | – | < 0.012 µM |
| COC(=O)[C@H](Cc1ccccc1)NP(=O)(O)OCC1OC(n2cc(C)c(=O)[nH]c2=O)CC1N=[N+]=[N-] (some centres not stated) | > 100 µM | – | > 100 µM | > 100 µM | > 100 µM | > 100 µM | > 100 µM | > 100 µM | > 100 µM | > 100 µM | – | – | – | – | – | – | – | – | – |
| CSc1nncc2[nH]cnc12 | > 100 µM | > 100 µM | > 100 µM | > 100 µM | > 100 µM | > 100 µM | – | – | > 100 µM | > 100 µM | – | – | – | – | – | – | – | – | – |
| O=C(CCc1ccccc1CO)NCCc1ccccc1 | > 100 µM | > 100 µM | > 100 µM | > 100 µM | > 100 µM | > 100 µM | – | – | > 100 µM | > 100 µM | – | – | – | – | – | – | – | – | – |
| COc1cc2c(cc1OC)C(Cc1ccccc1CCCl)=NCC2 | > 100 µM | > 100 µM | > 100 µM | > 100 µM | > 100 µM | > 100 µM | – | – | > 100 µM | > 100 µM | – | – | – | – | – | – | – | – | – |
